Results from patent US10597388B2, “Pyridazinone herbicides” (FMC CORPORATION, priority 2014, dated 2020).

What was measured:
Assay in all cases: Test C greenhouse herbicide test, pre- and postemergence
Assay type in all cases: in vivo
[1] = test system: barnyardgrass (Echinochloa crus-galli)
How it was run: (§1)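 Visual ratings on a 0 to 100 scale (0 = no effect, 100 = complete control) versus untreated controls, scored 13–15 d after treatment. Soil-applied preemergence to seeded loam/sand; foliar postemergence to 1- to 4-leaf plants (2–18 cm) in peat-vermiculite mix; compounds formulated in solvent plus surfactant.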

[2] = test system: blackgrass (Alopecurus myosuroides)
How it was run: as §1

[3] = test system: galium (catchweed bedstraw, Galium aparine)
How it was run: as §1

[4] = test system: soybean (Glycine max)
How it was run: as §1

[5] = test system: nutsedge, yellow (yellow nutsedge, Cyperus esculentus)
How it was run: as §1

[6] = test system: johnsongrass (Sorghum halepense)
How it was run: as §1

[7] = test system: corn (Zea mays)
How it was run: as §1

[8] = test system: wheat (winter wheat, Triticum aestivum)
How it was run: as §1

[9] = test system: foxtail, giant (giant foxtail, Setaria faberii)
How it was run: as §1

[10] = test system: ryegrass, Italian (Italian ryegrass, Lolium multiflorum)
How it was run: as §1

[11] = test system: crabgrass, large (large crabgrass, Digitaria sanguinalis)
How it was run: as §1

[12] = test system: velvetleaf (Abutilon theophrasti)
How it was run: as §1

[13] = Postemergence, 31 g ai/ha, 0 to 100 scale (0 no effect, 100 complete control)
[14] = Postemergence, 125 g ai/ha, scale 0 to 100, 0 is no effect, 100 is complete control
[15] = Postemergence, 250 g ai/ha, scale 0 to 100, 0 no effect, 100 complete control, 13 to 15 d
[16] = Preemergence, 31 g ai/ha, scale 0 to 100, 0 is no effect, 100 is complete control
[17] = Preemergence, 62 g ai/ha, scale 0 to 100, 0 is no effect, 100 is complete control
[18] = Preemergence, 125 g ai/ha, scale 0 to 100, 0 is no effect, 100 is complete control
[19] = Preemergence, 250 g ai/ha, scale 0 to 100, 0 no effect, 100 complete control
[20] = postemergence, 62 g ai/ha, scale 0 to 100, 0 no effect, 100 complete control

Cc1ccc2ccccc2c1-c1c(O)c(I)nn(C)c1=O [Compound 29]
Barnyardgrass plant response rating [1, 13]: 15 | Plant response rating, Barnyardgrass [1, 14]: 40 | Plant response rating, Barnyardgrass [1, 15]: 40 | Plant response rating, Barnyardgrass [1, 16]: 10 | Plant response rating, Barnyardgrass [1, 17]: 35 | Plant response rating, Barnyardgrass [1, 18]: 80 | Barnyardgrass plant response rating [1, 19]: 90 | Barnyardgrass plant response rating [1, 20]: 25 | Blackgrass plant response rating [2, 13]: 40 | Plant response rating, Blackgrass [2, 14]: 60 | Plant response rating, Blackgrass [2, 15]: 75 | Plant response rating, Blackgrass [2, 16]: 50 | Plant response rating, Blackgrass [2, 17]: 50 | Plant response rating, Blackgrass [2, 18]: 85 | Blackgrass plant response rating [2, 19]: 85 | Blackgrass plant response rating [2, 20]: 50 | Galium plant response rating [3, 13]: 90 | Plant response rating, Galium [3, 14]: 100 | Plant response rating, Galium [3, 15]: 100 | Plant response rating, Galium [3, 16]: 95 | Plant response rating, Galium [3, 17]: 95 | Plant response rating, Galium [3, 18]: 98 | Galium plant response rating [3, 19]: 98 | Galium plant response rating [3, 20]: 95 | Soybean plant response rating [4, 13]: 0 | Plant response rating, Soybean [4, 14]: 20 | Plant response rating, Soybean [4, 15]: 25 | Plant response rating, Soybean [4, 17]: 0 | Plant response rating, Soybean [4, 18]: 0 | Soybean plant response rating [4, 19]: 0 | Soybean plant response rating [4, 20]: 10 | Nutsedge, Yellow plant response rating [5, 13]: 25 | Plant response rating, Nutsedge, Yellow [5, 15]: 75 | Plant response rating, Nutsedge, Yellow [5, 16]: 15 | Plant response rating, Nutsedge, Yellow [5, 17]: 80 | Plant response rating, Nutsedge, Yellow [5, 18]: 85 | Nutsedge, Yellow plant response rating [5, 19]: 85 | Nutsedge, Yellow plant response rating [5, 20]: 35 | Johnsongrass plant response rating [6, 13]: 0 | Plant response rating, Johnsongrass [6, 15]: 25 | Plant response rating, Johnsongrass [6, 16]: 10 | Plant response rating, Johnsongrass [6, 17]: 5 | Plant response rating, Johnsongrass [6, 18]: 25 | Johnsongrass plant response rating [6, 19]: 20 | Johnsongrass plant response rating [6, 20]: 5 | Corn plant response rating [7, 13]: 0 | Plant response rating, Corn [7, 14]: 30 | Plant response rating, Corn [7, 15]: 20 | Plant response rating, Corn [7, 16]: 0 | Plant response rating, Corn [7, 17]: 0 | Plant response rating, Corn [7, 18]: 0 | Corn plant response rating [7, 19]: 45 | Corn plant response rating [7, 20]: 10 | Wheat plant response rating [8, 13]: 5 | Plant response rating, Wheat [8, 14]: 30 | Plant response rating, Wheat [8, 15]: 10 | Plant response rating, Wheat [8, 17]: 5 | Plant response rating, Wheat [8, 18]: 45 | Wheat plant response rating [8, 19]: 50 | Wheat plant response rating [8, 20]: 5 | Foxtail, Giant plant response rating [9, 13]: 30 | Plant response rating, Foxtail, Giant [9, 14]: 60 | Plant response rating, Foxtail, Giant [9, 15]: 80 | Plant response rating, Foxtail, Giant [9, 16]: 75 | Plant response rating, Foxtail, Giant [9, 17]: 75 | Plant response rating, Foxtail, Giant [9, 18]: 90 | Foxtail, Giant plant response rating [9, 19]: 95 | Foxtail, Giant plant response rating [9, 20]: 35 | Ryegrass, Italian plant response rating [10, 13]: 70 | Plant response rating, Ryegrass, Italian [10, 14]: 85 | Plant response rating, Ryegrass, Italian [10, 15]: 95 | Plant response rating, Ryegrass, Italian [10, 16]: 90 | Plant response rating, Ryegrass, Italian [10, 17]: 90 | Plant response rating, Ryegrass, Italian [10, 18]: 90 | Ryegrass, Italian plant response rating [10, 19]: 90 | Ryegrass, Italian plant response rating [10, 20]: 80 | Crabgrass, Large plant response rating [11, 13]: 10 | Plant response rating, Crabgrass, Large [11, 14]: 50 | Plant response rating, Crabgrass, Large [11, 15]: 40 | Plant response rating, Crabgrass, Large [11, 16]: 5 | Plant response rating, Crabgrass, Large [11, 17]: 5 | Plant response rating, Crabgrass, Large [11, 18]: 55 | Crabgrass, Large plant response rating [11, 19]: 90 | Crabgrass, Large plant response rating [11, 20]: 20 | Velvetleaf plant response rating [12, 13]: 35 | Plant response rating, Velvetleaf [12, 14]: 85 | Plant response rating, Velvetleaf [12, 15]: 90 | Plant response rating, Velvetleaf [12, 17]: 90 | Plant response rating, Velvetleaf [12, 18]: 100 | Velvetleaf plant response rating [12, 19]: 100 | Velvetleaf plant response rating [12, 20]: 80
